Reference: patent US10300226B2, “Rescue inhaler” (priority 2015, dated 2019)
Values joined by “and” are separate entries in the source; they are usually repeats but may differ in a detail not shown here. Equal values may be shown once.

How the values were obtained:
[1] = cited from earlier work; for density: 25 degrees Celsius (dry air: no temperature given); for gas density: standard temperature and atmospheric pressure, gram molecular weight/22.4
[2] = density of reference gases and prior-art heliox; assay type: physicochemical

density of oxygen ([2]; 24 degree Celsius and 742 torr, d=molar mass x p/RT) [g/L] | density of oxygen (D=P/RT) ([2]; T 273K, P 130000) [g/L] | Compound | density [1] [kg/m^3] | gas density [1]
– | – | [He] [Helium] | 0.1787 | 0.1785 g/L and 0.178 g/L
– | – | N#N [Example N2, nitrogen] | 1.2506 | 1.25 g/L
1.28 | 1.79 | O=O [oxygen] | 1.429 | 1.428 g/L
